From patent publication US12263248B2, “Compounds and compositions for intracellular delivery of therapeutic agents” (ModernaTX, Inc., priority 2018, dated 2025)

Key:
[1] = Apparent (surface) pKa of the LNP formulation (TNS assay); format: physicochemical; details: for pKa: Table 1A; for Apparent pKa: Table 3G
Method in brief: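 LNP (0.04 mg/mL mRNA) mixed with TNS reagent in 21 buffers spanning about pH 3-12, in triplicate; fluorescence plotted against pH as sigmoidal curve. Apparent pKa taken as […] curve inflection point; validated in 1× PBS and 20 mM Tris w/8% sucrose.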

luciferase (Luc) mRNA [2] = assay: Luc expression, whole body bioluminescence after intravenous administration to mice; format: in vivo; details: for Fold increase in total body Luc Flux relative to MC3 at 6 h: Table 3A; for Fold increase in total body Luc Flux relative to MC3 at 6 h / flux measured at 6 h relative to the MC3 formulation: i.v. administration; for flux measured at 6 h relative to the MC3 formulation: in words; for Novel lipid/MC3 expression ratio, 6 hr. time point, i.v. / Novel lipid/MC3 ratio, 6 hr. timepoint, i.v.: luciferase, intravenous; for Novel lipid/MC3 expression ratio, 6 hr. time point, i.v.: relative to MC3 formulation; for Total Flux 3 hours / Total Flux 6 hours / Total Flux 24 hours: mice, 0.5 mg/kg, Luc mRNA; for Total Flux 3 hours / Total Flux 6 hours / Total Flux 24 hours / i.v. Lipid/MC3 0.5 mpk, Luc, 6 h: i.v.; for Novel lipid/MC3 ratio, 6 hr. timepoint, i.v.: relative to MC3, Table 3G; for i.v. Lipid/MC3 0.5 mpk, Luc, 6 h: Table 3B
Method in brief: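 Luc mRNA nanoparticle formulations given intravenously to mice (n=6) at 0.5 mg/kg; whole-body bioluminescence imaged at 3, 6 and 24 h. CD-1 mice received IP D-luciferin (200 μL of 15 mg/mL) 15 min before imaging; total flux quantified by region of interest.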

luciferase (Luc) mRNA [3] = assay: Luc expression (total flux) after intramuscular administration; format: in vivo, mice; details: for AUC (p/s * h) / Lipid/MC3 AUC: Table 3H, Luc; for AUC (p/s * h) / Lipid/MC3 AUC / Novel lipid/MC3 expression ratio, 6 hr. time point, i.m. Luc: intramuscular; for Novel lipid/MC3 expression ratio, 6 hr. time point, i.m. Luc: relative to MC3 formulation; for Total flux (p/s) 0.01 mpk Dose: Table 5B; for i.m. Lipid/MC3 0.01 mpk, Luc, 6 h: Table 3B
Method in brief: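 Mice given a single intramuscular dose of lipid nanoparticle formulations carrying modified Luc mRNA, alone or with H10 mRNA, at 0.001 or 0.01 mpk total. Luciferase expression recorded as total flux.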

[4] = Encapsulation efficiency of RNA (QUANT-IT RIBOGREEN RNA assay); format: physicochemical
Method in brief: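 RiboGreen fluorescence (ex ~480, em ~520 nm) compared between intact samples and Triton X-100-lysed samples after 15 min at 37 °C in TE buffer, pH 7.5. Percent free RNA is the blank-corrected intact/disrupted ratio.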

[5] = Table 1D, for subcutaneous administration, # formulated with hEPO mRNA
[6] = 6 hours after intramuscular administration, 0.01 mpk
[7] = Table 1B, formulated with hEPO mRNA
[8] = Table 1E, compositions for subcutaneous administration
[9] = Table 1C, compositions for subcutaneous administration

pKa [1]	EE (%) ([4]; Table 1A)	EE (%) [4, 7] [%]	% EE [4, 8] [%]	% EE [4, 9] [%]	Structure (SMILES)	Novel lipid/MC3 expression ratio, 6 hr. time point, i.v. (luciferase (Luc) mRNA [2])	Total Flux 3 hours (luciferase (Luc) mRNA [2])	Total Flux 6 hours (luciferase (Luc) mRNA [2])	Total Flux 24 hours (luciferase (Luc) mRNA [2])	AUC (p/s * h) (luciferase (Luc) mRNA [3])	Lipid/MC3 AUC (luciferase (Luc) mRNA [3])	Novel lipid/MC3 expression ratio, 6 hr. time point, i.m. Luc (luciferase (Luc) mRNA [3])	Total flux (p/s) 0.01 mpk Dose (luciferase (Luc) mRNA [3]; [6]) [p/s]	also measured
6.52	89.52				CCCCCCCCC(CC)OC(=O)CCCCCCCN(CCO)CCCCCCCC(=O)OC(CCCCCCCC)CCCCCCCC (stereo not shown) [Compound 49, heptadecan-9-yl 8-((2-hydroxyethyl)(8-oxo-8-(undecan-3-yloxy)octyl)amino)octanoate]	9.81	4.48E+10	1.08E+11	1.24E+09	7.54E+09	12.82	12.99		Fold increase in total body Luc Flux relative to MC3 at 6 h (luciferase (Luc) mRNA [2]): 9.81; flux measured at 6 h relative to the MC3 formulation (luciferase (Luc) mRNA [2]): ten times higher; % EE [4, 5]: 96.2%
6.73	97.6	95.20	88		CCCC/C=C\CCC(CC/C=C\CCCC)OC(=O)CCCCCCCN(CCO)CCCCCCCC(=O)OCCCCCCCCC [Compound 60, (5Z,12Z)-Heptadeca-5,12-dien-9-yl 8-((2-hydroxyethyl)(8-(nonyloxy)-8-oxooctyl)amino)octanoate]	3.37	7.91E+10	9.04E+10	2.90E+09			2.93	9.48E+07	% EE [4, 5]: 93.0%
6.70	97.40		96		CCCC/C=C\CCC(CC/C=C\CCCC)OC(=O)CCCCCCCN(CCO)CCCCCC(=O)OCCCCCCCCCCC [Compound 61, (5Z,12Z)-heptadeca-5,12-dien-9-yl 8-((2-hydroxyethyl)(6-oxo-6-(undecyloxy)hexyl)amino)octanoate]	2.31	6.54E+10	6.20E+10	1.78E+09	2.30E+09	3.91	3.51		
6.29	94.69			94.9	CCCCCCCCC(CC)OC(=O)CCCN(CCO)CCCCCCCC(=O)OC(CCCCCCCC)CCCCCCCC (stereo not shown) [Compound 72, Heptadecan-9-yl 8-((2-hydroxyethyl)(4-oxo-4-(undecan-3-yloxy)butyl)amino)octanoate]	1.52	1.73E+10	4.07E+10	7.12E+08	6.48E+08	1.10	1.03		Novel lipid/MC3 ratio, 6 hr. timepoint, i.v. (luciferase (Luc) mRNA [2]): 1.52
6.67	92.3			94.9	CCCCCCCCC(CC)OC(=O)CCCCCN(CCO)CCCCCCCC(=O)OC(CCCCCCCC)CCCCCCCC (stereo not shown) [Compound 75, Heptadecan-9-yl 8-((2-hydroxyethyl)(6-oxo-6-(undecan-3-yloxy)hexyl)amino)octanoate]	3.29	3.51E+10	8.80E+10	2.13E+09	1.29E+09	2.20	1.22		Novel lipid/MC3 ratio, 6 hr. timepoint, i.v. (luciferase (Luc) mRNA [2]): 3.29
7.17	96	95.38	96		CCCCCCCCCOC(=O)CCCCCCCN(CCCCCCCC(=O)OC(CCCCCCCC)CCCCCCCC)CCCNC(C)=O [Compound 108, Heptadecan-9-yl 8-((3-acetamidopropyl)(8-(nonyloxy)-8-oxooctyl)amino)octanoate]		5.04E+09	5.53E+09	1.50E+08			14.2	4.60E+08	i.v. Lipid/MC3 0.5 mpk, Luc, 6 h (luciferase (Luc) mRNA [2]): 0.4; Luc expression upon intramuscular administration (luciferase (Luc) mRNA [3]; 0.01 mpk, in words): highest expression; i.m. Lipid/MC3 0.01 mpk, Luc, 6 h (luciferase (Luc) mRNA [3]; 0.01 mpk): 14.2; flux measured at 6 h relative to the MC3 formulation (luciferase (Luc) mRNA [3]; intramuscular administration (i.m.), in words): fourteen
6.78	98.6	98.29	98		CCCCCCCCCOC(=O)CCCCCCCN(CCCCCCCC(=O)OC(CCCCCCCC)CCCCCCCC)CCCNS(C)(=O)=O [Compound 109, Heptadecan-9-yl 8-((3-(methylsulfonamido)propyl)(8-(nonyloxy)-8-oxooctyl)amino)octanoate]		3.82E+09	4.88E+09	8.06E+07			3.65	1.18E+08	i.v. Lipid/MC3 0.5 mpk, Luc, 6 h (luciferase (Luc) mRNA [2]): 0.3; i.m. Lipid/MC3 0.01 mpk, Luc, 6 h (luciferase (Luc) mRNA [3]; 0.01 mpk): 3.6
8.03	91.9	92.39		91.9	CCCCCCCCCOC(=O)CCCCCCCN(CCCCCCCC(=O)OC(CCCCCCCC)CCCCCCCC)CCCNC(=O)N(C)C [Compound 110, Heptadecan-9-yl 8-((3-(3,3-dimethylureido)propyl)(8-(nonyloxy)-8-oxooctyl)amino)octanoate]		1.89E+09	2.57E+09	1.11E+08			3.74	1.21E+08	Apparent pKa [1]: 8.03
7.13	76.8	91.23	88		CCCCCCCCCOC(=O)CCCCCCCN(CCCCCCCC(=O)OC(CCCCCCCC)CCCCCCCC)CCCNC(=S)N(C)C [Compound 111, Heptadecan-9-yl 8-((3-(3,3-dimethylthioureido)propyl)(8-(nonyloxy)-8-oxooctyl)amino)octanoate]	2.59	1.89E+10	3.57E+10	8.86E+08			4.88	1.58E+08	i.v. Lipid/MC3 0.5 mpk, Luc, 6 h (luciferase (Luc) mRNA [2]): 2.6; i.m. Lipid/MC3 0.01 mpk, Luc, 6 h (luciferase (Luc) mRNA [3]; 0.01 mpk): 4.9; % EE [4, 5]: 90.9%
7.78	99.0	96.40		99.0	CCCCCCCCCOC(=O)CCCCCCCN(CCCCCCCC(=O)OC(CCCCCCCC)CCCCCCCC)CCCNC(=O)NC [Compound 112, Heptadecan-9-yl 8-((3-(3-methylureido)propyl)(8-(nonyloxy)-8-oxooctyl)amino)octanoate]		9.69E+08	1.04E+09	2.75E+07			2.93	9.47E+07	Apparent pKa [1]: 7.78
6.93	96.92			99.6	CCCCCCCCCOC(=O)CCCCCCCN(CCCCCCCC(=O)OC(CCCCCCCC)CCCCCCCC)CCCNC(=S)NC [Compound 113, Heptadecan-9-yl 8-((3-(3-methylthioureido)propyl)(8-(nonyloxy)-8-oxooctyl)amino)octanoate]		5.16E+09	8.09E+09	1.30E+08	1.01E+09	1.71	1.58		
6.83	98.2	96.27		94.8	CCCCCCCCC(C)OC(=O)CCCCCN(CCO)CCCCCCCC(=O)OC(CCCCCCCC)CCCCCCCC (stereo not shown) [Compound 122, Heptadecan-9-yl 8-((6-(decan-2-yloxy)-6-oxohexyl)(2-hydroxyethyl)amino)octanoate]	3.23	3.64E+10	8.64E+10	1.95E+09			2.84	9.19E+07	Apparent pKa [1]: 6.83; Novel lipid/MC3 ratio, 6 hr. timepoint, i.v. (luciferase (Luc) mRNA [2]): 3.23

Structure (SMILES)	pKa [1]	EE (%) ([4]; Table 1A)	EE (%) [4, 7] [%]	% EE [4, 8] [%]	% EE [4, 9] [%]	Novel lipid/MC3 expression ratio, 6 hr. time point, i.v. (luciferase (Luc) mRNA [2])	Total Flux 3 hours (luciferase (Luc) mRNA [2])	Total Flux 6 hours (luciferase (Luc) mRNA [2])	Total Flux 24 hours (luciferase (Luc) mRNA [2])	AUC (p/s * h) (luciferase (Luc) mRNA [3])	Lipid/MC3 AUC (luciferase (Luc) mRNA [3])	Novel lipid/MC3 expression ratio, 6 hr. time point, i.m. Luc (luciferase (Luc) mRNA [3])	Total flux (p/s) 0.01 mpk Dose (luciferase (Luc) mRNA [3]; [6]) [p/s]	also measured
CCCCCCCCC(CCC)OC(=O)CCCCCCCN(CCO)CCCCCCCC(=O)OC(CCCCCCCC)CCCCCCCC (stereo not shown) [Compound 50, dodecan-4-yl 8-((8-(heptadecan-9-yloxy)-8-oxooctyl)(2-hydroxyethyl)amino)octanoate]	6.42	97.33					3.81E+10	7.49E+10	5.02E+08					Fold increase in total body Luc Flux relative to MC3 at 6 h (luciferase (Luc) mRNA [2]): 6.81; flux measured at 6 h relative to the MC3 formulation (luciferase (Luc) mRNA [2]): higher flux than MC3 formulations; Total flux, 0.001 mpk Dose (luciferase (Luc) mRNA [3]; 6 hours after intramuscular administration, 0.001 mpk, Luc mRNA and H10 mRNA): 6.56E+05 p/s; Total flux, 0.01 mpk Dose (luciferase (Luc) mRNA [3]; 6 hours after intramuscular administration, 0.01 mpk, Luc mRNA and H10 mRNA): 1.13E+07 p/s
